#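 Interpolation was linear, between the two tested concentrations surrounding the appropriate level; five concentrations were tested over 48 hours in 96-well plates. The concentration for 50% growth inhibition is given as GI50. The concentration for full growth arrest is given as TGI.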
# Assays:
# Test in all cases: inhibition of tumour cell growth, NCI panel, 48 h
# HCT-116 colon = test system: HCT-116 colon
# ACHN renal = test system: ACHN renal
# UACC-62 melanoma = test system: UACC-62 melanoma
# SR leukemia = test system: SR leukemia
# HS 578T breast = test system: HS 578T breast
# MDA-MB-231 breast = test system: MDA-MB-231 breast
# 786-0 renal = test system: 786-0 renal
# IGROV1 ovarian = test system: IGROV1 ovarian
# KM12 colon = test system: KM12 colon
# NCI-H226 lung = test system: NCI-H226 lung
# HT29 colon = test system: HT29 colon
# CCRF-CEM leukemia = test system: CCRF-CEM leukemia
# SK-OV-3 ovarian = test system: SK-OV-3 ovarian
# SW-620 colon = test system: SW-620 colon
# HL-60(TB) leukemia = test system: HL-60(TB) leukemia
# SF-268 CNS = test system: SF-268 CNS
# SN12C renal = test system: SN12C renal
# RXF 393 renal = test system: RXF 393 renal
# DU-145 prostate = test system: DU-145 prostate
# SK-MEL-28 melanoma = test system: SK-MEL-28 melanoma
# A498 renal = test system: A498 renal
# HOP-62 NSCLC = test system: HOP-62 NSCLC
# NCI/ADR-RES ovarian = test system: NCI/ADR-RES ovarian
# SK-MEL-5 melanoma = test system: SK-MEL-5 melanoma
# BT-549 breast = test system: BT-549 breast
# UO-31 renal = test system: UO-31 renal
# T-47D breast = test system: T-47D breast
# MDA-MB-435 = test system: MDA-MB-435
# MCF7 breast = test system: MCF7 breast
# UACC-257 melanoma = test system: UACC-257 melanoma
# EKVX NSCLC = test system: EKVX NSCLC
# NCI-H23 lung = test system: NCI-H23 lung
# HCC-2998 colon = test system: HCC-2998 colon
# SF-539 CNS = test system: SF-539 CNS
# SK-MEL-2 melanoma = test system: SK-MEL-2 melanoma
# SF-295 CNS = test system: SF-295 CNS
# COLO 205 colon = test system: COLO 205 colon
# OVCAR-4 ovarian = test system: OVCAR-4 ovarian
# A549 NSCLC = test system: A549 NSCLC
# U251 CNS = test system: U251 CNS
# PC-3 prostate = test system: PC-3 prostate
# RPMI-8226 leukemia = test system: RPMI-8226 leukemia
# SNB-19 CNS = test system: SNB-19 CNS
# K-562 leukemia = test system: K-562 leukemia
# HOP-92 NSCLC = test system: HOP-92 NSCLC
# HCT-15 colon = test system: HCT-15 colon
# MOLT-4 leukemia = test system: MOLT-4 leukemia
# LOX IMVI melanoma = test system: LOX IMVI melanoma
# OVCAR-8 ovarian = test system: OVCAR-8 ovarian
# OVCAR-5 ovarian = test system: OVCAR-5 ovarian
# NCI-H460 lung = test system: NCI-H460 lung
# MALME-3M melanoma = test system: MALME-3M melanoma
# CAKI-1 renal = test system: CAKI-1 renal
# SNB-75 CNS = test system: SNB-75 CNS
# TK-10 renal = test system: TK-10 renal
# M14 melanoma = test system: M14 melanoma
# NCI-H522 lung = test system: NCI-H522 lung
# OVCAR-3 ovarian = test system: OVCAR-3 ovarian
smiles,measurement,setting,value
COc1ccc2c(c1)c(/C=N/Nc1ccnc3cc(Cl)ccc13)cn2C,GI50,HCT-116 colon,0.176 µM
same,TGI,HCT-116 colon,0.324 µM
same,GI50,ACHN renal,0.683 µM
same,TGI,ACHN renal,1.56 µM
same,GI50,UACC-62 melanoma,1.73 µM
same,TGI,UACC-62 melanoma,3.52 µM
same,GI50,SR leukemia,0.143 µM
same,TGI,SR leukemia,0.521 µM
same,GI50,HS 578T breast,1.81 µM
same,TGI,HS 578T breast,3.88 µM
same,GI50,MDA-MB-231 breast,0.203 µM
same,TGI,MDA-MB-231 breast,0.444 µM
same,GI50,786-0 renal,0.175 µM
same,TGI,786-0 renal,0.317 µM
same,GI50,IGROV1 ovarian,0.176 µM
same,TGI,IGROV1 ovarian,0.345 µM
same,GI50,KM12 colon,0.194 µM
same,TGI,KM12 colon,0.384 µM
same,GI50,NCI-H226 lung,1.82 µM
same,TGI,NCI-H226 lung,4.31 µM
same,GI50,HT29 colon,0.176 µM
same,TGI,HT29 colon,0.325 µM
same,GI50,CCRF-CEM leukemia,0.234 µM
same,TGI,CCRF-CEM leukemia,0.589 µM
same,GI50,SK-OV-3 ovarian,1.57 µM
same,TGI,SK-OV-3 ovarian,3.14 µM
same,GI50,SW-620 colon,0.185 µM
same,TGI,SW-620 colon,0.36 µM
same,GI50,HL-60(TB) leukemia,0.231 µM
same,TGI,HL-60(TB) leukemia,0.533 µM
same,GI50,SF-268 CNS,1.66 µM
same,TGI,SF-268 CNS,3.46 µM
same,GI50,SN12C renal,0.439 µM
same,TGI,SN12C renal,0.961 µM
same,GI50,RXF 393 renal,1.26 µM
same,TGI,RXF 393 renal,2.9 µM
same,GI50,DU-145 prostate,0.192 µM
same,TGI,DU-145 prostate,0.349 µM
same,GI50,SK-MEL-28 melanoma,1.84 µM
same,TGI,SK-MEL-28 melanoma,3.46 µM
same,GI50,A498 renal,1.83 µM
same,TGI,A498 renal,3.47 µM
same,GI50,HOP-62 NSCLC,1.45 µM
same,TGI,HOP-62 NSCLC,3.3 µM
same,GI50,NCI/ADR-RES ovarian,0.6 µM
same,TGI,NCI/ADR-RES ovarian,1.48 µM
same,GI50,SK-MEL-5 melanoma,1.64 µM
same,TGI,SK-MEL-5 melanoma,3.18 µM
same,GI50,BT-549 breast,1.89 µM
same,TGI,BT-549 breast,3.54 µM
same,GI50,UO-31 renal,1.39 µM
same,TGI,UO-31 renal,2.85 µM
same,GI50,T-47D breast,0.227 µM
same,TGI,T-47D breast,0.599 µM
same,GI50,MDA-MB-435,0.186 µM
same,TGI,MDA-MB-435,0.354 µM
same,GI50,MCF7 breast,0.164 µM
same,TGI,MCF7 breast,0.327 µM
same,GI50,UACC-257 melanoma,1.78 µM
same,TGI,UACC-257 melanoma,3.66 µM
same,GI50,EKVX NSCLC,1.51 µM
same,TGI,EKVX NSCLC,3.19 µM
same,GI50,NCI-H23 lung,0.214 µM
same,TGI,NCI-H23 lung,0.556 µM
same,GI50,HCC-2998 colon,0.369 µM
same,TGI,HCC-2998 colon,1.19 µM
same,GI50,SF-539 CNS,0.612 µM
same,TGI,SF-539 CNS,1.25 µM
same,GI50,SK-MEL-2 melanoma,1.7 µM
same,TGI,SK-MEL-2 melanoma,3.28 µM
same,GI50,SF-295 CNS,1.11 µM
same,TGI,SF-295 CNS,3.15 µM
same,GI50,COLO 205 colon,0.578 µM
same,TGI,COLO 205 colon,1.8 µM
same,GI50,OVCAR-4 ovarian,0.681 µM
same,TGI,OVCAR-4 ovarian,1.7 µM
same,GI50,A549 NSCLC,0.181 µM
same,TGI,A549 NSCLC,0.347 µM
same,GI50,U251 CNS,0.173 µM
same,TGI,U251 CNS,0.322 µM
same,GI50,PC-3 prostate,0.517 µM
same,TGI,PC-3 prostate,1.29 µM
same,GI50,RPMI-8226 leukemia,0.233 µM
same,TGI,RPMI-8226 leukemia,0.565 µM
same,GI50,SNB-19 CNS,0.648 µM
same,TGI,SNB-19 CNS,2.09 µM
same,GI50,K-562 leukemia,0.193 µM
same,TGI,K-562 leukemia,0.382 µM
same,GI50,HOP-92 NSCLC,0.823 µM
same,TGI,HOP-92 NSCLC,2.49 µM
same,GI50,HCT-15 colon,0.2 µM
same,TGI,HCT-15 colon,0.41 µM
same,GI50,MOLT-4 leukemia,0.215 µM
same,TGI,MOLT-4 leukemia,0.478 µM
same,GI50,LOX IMVI melanoma,0.183 µM
same,TGI,LOX IMVI melanoma,0.352 µM
same,GI50,OVCAR-8 ovarian,0.202 µM
same,TGI,OVCAR-8 ovarian,0.44 µM
same,GI50,OVCAR-5 ovarian,0.609 µM
same,TGI,OVCAR-5 ovarian,1.19 µM
same,GI50,NCI-H460 lung,0.193 µM
same,TGI,NCI-H460 lung,0.357 µM
same,GI50,MALME-3M melanoma,1.47 µM
same,TGI,MALME-3M melanoma,3.27 µM
same,GI50,CAKI-1 renal,1.49 µM
same,TGI,CAKI-1 renal,2.89 µM
same,GI50,SNB-75 CNS,1.32 µM
same,TGI,SNB-75 CNS,2.8 µM
same,GI50,TK-10 renal,1.24 µM
same,TGI,TK-10 renal,2.78 µM
same,GI50,M14 melanoma,0.992 µM
same,TGI,M14 melanoma,2.6 µM
same,GI50,NCI-H522 lung,0.563 µM
same,TGI,NCI-H522 lung,1.28 µM
same,GI50,OVCAR-3 ovarian,1.18 µM
same,TGI,OVCAR-3 ovarian,2.44 µM
